experiment: recombinant barcode read abundance after kanamycin selection (control-corrected) (log10(CPM+1)); higher = more efficient recombination; sequences stand for … in AGTGCAGAGAAAATCGGCCAGTTTTCTCTGCCTGCAGTCCGCATGCCGT…ATTTATGCAGCGGACTGCCTTTCTCCCAAAGTGATAAACCGGACAGTATCATGGACCGGTTTTCCCGGTAATCCGTATTTGCAAGGTTGGTTTCACT; site = the 11-nt target
Experimental: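 Same pooled E. coli target screen (IS621 bridge recombinase, kanamycin selection, control-corrected CPM, mean of 2 biological replicates). Here the two core-binding nucleotides of the LTG and RTG of the bridge RNA target-binding loop are mutated. Target and donor CT cores are held constant, and the other 9 guide positions match the target. The target is read from the library oligo sequence. Molecule = full bridge RNA written as DNA: nt 1-80 from the library oligo, rest WT scaffold.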

Sequence	recombinant barcode read abundance (log10)
AGTCTTACATGGGTTCTAACCTGTTGCCATG [AGTCTTACTTG_LTGcore_CA_RTGcore_CA] (site AGTCTTACTTG) (LTG core: CA, RTG core: CA)	0.21
AGTCTTACGTGGGTTCTAACCTGTTGCCACG [AGTCTTACTTG_LTGcore_CG_RTGcore_CG] (site AGTCTTACTTG) (LTG core: CG, RTG core: CG)	0.213
AGTCTTACTTGGGTTCTAACCTGTTGCCAAG [AGTCTTACTTG_LTGcore_CT_RTGcore_CT] (site AGTCTTACTTG) (LTG core: CT, RTG core: CT)	0.0171
AGTCTTACTTGGGTTCTAACCTGTTGCCAAT [AGTCTTACTTG_LTGcore_CT_RTGcore_AT] (site AGTCTTACTTG) (LTG core: CT, RTG core: AT)	0.144
AGTCTTACTTGGGTTCTAACCTGTTGCCACC [AGTCTTACTTG_LTGcore_CT_RTGcore_GG] (site AGTCTTACTTG) (LTG core: CT, RTG core: GG)	0.0199
AGTCTTACTTGGGTTCTAACCTGTTGCCAGA [AGTCTTACTTG_LTGcore_CT_RTGcore_TC] (site AGTCTTACTTG) (LTG core: CT, RTG core: TC)	0.0445
AGTCTTACTTGGGTTCTAACCTGTTGCCATA [AGTCTTACTTG_LTGcore_CT_RTGcore_TA] (site AGTCTTACTTG) (LTG core: CT, RTG core: TA)	0.136
AGTCTTACTTGGGTTCTAACCTGTTGCCATC [AGTCTTACTTG_LTGcore_CT_RTGcore_GA] (site AGTCTTACTTG) (LTG core: CT, RTG core: GA)	0.155
AGTCTTACTTGGGTTCTAACCTGTTGCCATT [AGTCTTACTTG_LTGcore_CT_RTGcore_AA] (site AGTCTTACTTG) (LTG core: CT, RTG core: AA)	0.196
AGTCTTAGCTGGGTTCTAACCTGTTGCCAGC [AGTCTTACTTG_LTGcore_GC_RTGcore_GC] (site AGTCTTACTTG) (LTG core: GC, RTG core: GC)	0.197
AGTCTTAGGTGGGTTCTAACCTGTTGCCACC [AGTCTTACTTG_LTGcore_GG_RTGcore_GG] (site AGTCTTACTTG) (LTG core: GG, RTG core: GG)	0.274
AGTCTTATATGGGTTCTAACCTGTTGCCATA [AGTCTTACTTG_LTGcore_TA_RTGcore_TA] (site AGTCTTACTTG) (LTG core: TA, RTG core: TA)	0.153
AGTCTTATTTGGGTTCTAACCTGTTGCCAAG [AGTCTTACTTG_LTGcore_TT_RTGcore_CT] (site AGTCTTACTTG) (LTG core: TT, RTG core: CT)	0.137
ATGCTTTAGTGGGTTCTAACCTGTTGCCTAG [ATGCTTTCTAG_LTGcore_AG_RTGcore_CT] (site ATGCTTTCTAG) (LTG core: AG, RTG core: CT)	0.0782
ATGCTTTCCTGGGTTCTAACCTGTTGCCTAG [ATGCTTTCTAG_LTGcore_CC_RTGcore_CT] (site ATGCTTTCTAG) (LTG core: CC, RTG core: CT)	0.0734
ATGCTTTCCTGGGTTCTAACCTGTTGCCTGG [ATGCTTTCTAG_LTGcore_CC_RTGcore_CC] (site ATGCTTTCTAG) (LTG core: CC, RTG core: CC)	0.0978
ATGCTTTCGTGGGTTCTAACCTGTTGCCTAG [ATGCTTTCTAG_LTGcore_CG_RTGcore_CT] (site ATGCTTTCTAG) (LTG core: CG, RTG core: CT)	0.0216
ATGCTTTCTTGGGTTCTAACCTGTTGCCTAC [ATGCTTTCTAG_LTGcore_CT_RTGcore_GT] (site ATGCTTTCTAG) (LTG core: CT, RTG core: GT)	0.191
ATGCTTTCTTGGGTTCTAACCTGTTGCCTTG [ATGCTTTCTAG_LTGcore_CT_RTGcore_CA] (site ATGCTTTCTAG) (LTG core: CT, RTG core: CA)	0.0598
ATGCTTTGATGGGTTCTAACCTGTTGCCTAG [ATGCTTTCTAG_LTGcore_GA_RTGcore_CT] (site ATGCTTTCTAG) (LTG core: GA, RTG core: CT)	0.229
ATGCTTTGATGGGTTCTAACCTGTTGCCTTC [ATGCTTTCTAG_LTGcore_GA_RTGcore_GA] (site ATGCTTTCTAG) (LTG core: GA, RTG core: GA)	0.0368

Sequence	recombinant barcode read abundance (log10)
ATGCTTTGCTGGGTTCTAACCTGTTGCCTGC [ATGCTTTCTAG_LTGcore_GC_RTGcore_GC] (site ATGCTTTCTAG) (LTG core: GC, RTG core: GC)	0.0848
ATGCTTTTATGGGTTCTAACCTGTTGCCTAG [ATGCTTTCTAG_LTGcore_TA_RTGcore_CT] (site ATGCTTTCTAG) (LTG core: TA, RTG core: CT)	0.238
ATGCTTTTATGGGTTCTAACCTGTTGCCTTA [ATGCTTTCTAG_LTGcore_TA_RTGcore_TA] (site ATGCTTTCTAG) (LTG core: TA, RTG core: TA)	0.232
ATGCTTTTGTGGGTTCTAACCTGTTGCCTAG [ATGCTTTCTAG_LTGcore_TG_RTGcore_CT] (site ATGCTTTCTAG) (LTG core: TG, RTG core: CT)	0.0287
ATGCTTTTTTGGGTTCTAACCTGTTGCCTAA [ATGCTTTCTAG_LTGcore_TT_RTGcore_TT] (site ATGCTTTCTAG) (LTG core: TT, RTG core: TT)	0.0151
ATGTCCCAGTGGGTTCTAACCTGTTGCTCCT [ATGTCCCCTGA_LTGcore_AG_RTGcore_AG] (site ATGTCCCCTGA) (LTG core: AG, RTG core: AG)	0.0318
ATGTCCCCGTGGGTTCTAACCTGTTGCTCCG [ATGTCCCCTGA_LTGcore_CG_RTGcore_CG] (site ATGTCCCCTGA) (LTG core: CG, RTG core: CG)	0.163
ATGTCCCCTTGGGTTCTAACCTGTTGCTCAC [ATGTCCCCTGA_LTGcore_CT_RTGcore_GT] (site ATGTCCCCTGA) (LTG core: CT, RTG core: GT)	0.0456
ATGTCCCCTTGGGTTCTAACCTGTTGCTCCA [ATGTCCCCTGA_LTGcore_CT_RTGcore_TG] (site ATGTCCCCTGA) (LTG core: CT, RTG core: TG)	0.0151
ATGTCCCCTTGGGTTCTAACCTGTTGCTCCT [ATGTCCCCTGA_LTGcore_CT_RTGcore_AG] (site ATGTCCCCTGA) (LTG core: CT, RTG core: AG)	0.205
ATGTCCCCTTGGGTTCTAACCTGTTGCTCTG [ATGTCCCCTGA_LTGcore_CT_RTGcore_CA] (site ATGTCCCCTGA) (LTG core: CT, RTG core: CA)	0.00868
ATGTCCCGCTGGGTTCTAACCTGTTGCTCAG [ATGTCCCCTGA_LTGcore_GC_RTGcore_CT] (site ATGTCCCCTGA) (LTG core: GC, RTG core: CT)	0
ATGTCCCGGTGGGTTCTAACCTGTTGCTCCC [ATGTCCCCTGA_LTGcore_GG_RTGcore_GG] (site ATGTCCCCTGA) (LTG core: GG, RTG core: GG)	0.109
CATATTAAATGGGTTCTAACCTGTTGCCTTT [CATATTACTAG_LTGcore_AA_RTGcore_AA] (site CATATTACTAG) (LTG core: AA, RTG core: AA)	1.4
CATATTAACTGGGTTCTAACCTGTTGCCTGT [CATATTACTAG_LTGcore_AC_RTGcore_AC] (site CATATTACTAG) (LTG core: AC, RTG core: AC)	0.119
CATATTAAGTGGGTTCTAACCTGTTGCCTAG [CATATTACTAG_LTGcore_AG_RTGcore_CT] (site CATATTACTAG) (LTG core: AG, RTG core: CT)	0.0215
CATATTAATTGGGTTCTAACCTGTTGCCTAT [CATATTACTAG_LTGcore_AT_RTGcore_AT] (site CATATTACTAG) (LTG core: AT, RTG core: AT)	0.0885
CATATTACCTGGGTTCTAACCTGTTGCCTGG [CATATTACTAG_LTGcore_CC_RTGcore_CC] (site CATATTACTAG) (LTG core: CC, RTG core: CC)	0.638
CATATTACGTGGGTTCTAACCTGTTGCCTCG [CATATTACTAG_LTGcore_CG_RTGcore_CG] (site CATATTACTAG) (LTG core: CG, RTG core: CG)	0.443
CATATTACTTGGGTTCTAACCTGTTGCCTCG [CATATTACTAG_LTGcore_CT_RTGcore_CG] (site CATATTACTAG) (LTG core: CT, RTG core: CG)	0.0475

— the supplement of paper PMC11208160
